Consider seven compounds from US12139492B2 (Endotarget Inc., priority 2021, dated 2024).

One experiment concerns JeKo-1 cells. Description: Antiproliferative effect, MTS cell viability assay, JeKo-1 cells. It counts as cell-based. The following applies: Homo sapiens; JeKo-1 mantle cell lymphoma cells; read-out: IC50 (anti-proliferation) JeKO-1 cells. The procedure:
(§1) Antiproliferative effect of the exemplary compounds was assessed in B-cell malignancy models.
(§2) To assess the effect of the exemplary compounds on cell viability in B-cell malignancy models by degradation of BTK protein, Mino and JeKo-1 cells were treated with varying concentrations of Ibrutinib (0, 0.001, 0.01, 0.1, 1, 10 μM). Under these conditions, cell viability was determined by an MTS assay. Cytotoxicity was assayed by the determination of reduced tetrazolium (formazan) created by metabolically active cells as detected at 490 nm absorbance using a microplate reader (BMG Labtech, Cary, NC, USA).
(§3) The exemplary compounds attenuated the viability of Mino and JeKo-1 cells in a concentration-dependent manner at 72 h post treatment. Results are shown in Table 1 for each exemplary compound.

The next experiment addresses BTK (Homo sapiens, UniProt Q06187). Kind of experiment: Degradation of BTK protein in Namalwa cells (Western blot; DC50, Dmax). The settings on record: for DC50: BTK degradation, cell line not given.
The subject of a further experiment is Mino cells. Kind of experiment: Antiproliferative effect, MTS cell viability assay, Mino cells. The following applies: Homo sapiens, MINO, Mino mantle cell lymphoma cells; read-out: IC50 (anti-proliferation) Mino cells. It is filed as cell-based. The procedure:
as §1, §2, §3

Chain of BTK (Q06187 whole entry): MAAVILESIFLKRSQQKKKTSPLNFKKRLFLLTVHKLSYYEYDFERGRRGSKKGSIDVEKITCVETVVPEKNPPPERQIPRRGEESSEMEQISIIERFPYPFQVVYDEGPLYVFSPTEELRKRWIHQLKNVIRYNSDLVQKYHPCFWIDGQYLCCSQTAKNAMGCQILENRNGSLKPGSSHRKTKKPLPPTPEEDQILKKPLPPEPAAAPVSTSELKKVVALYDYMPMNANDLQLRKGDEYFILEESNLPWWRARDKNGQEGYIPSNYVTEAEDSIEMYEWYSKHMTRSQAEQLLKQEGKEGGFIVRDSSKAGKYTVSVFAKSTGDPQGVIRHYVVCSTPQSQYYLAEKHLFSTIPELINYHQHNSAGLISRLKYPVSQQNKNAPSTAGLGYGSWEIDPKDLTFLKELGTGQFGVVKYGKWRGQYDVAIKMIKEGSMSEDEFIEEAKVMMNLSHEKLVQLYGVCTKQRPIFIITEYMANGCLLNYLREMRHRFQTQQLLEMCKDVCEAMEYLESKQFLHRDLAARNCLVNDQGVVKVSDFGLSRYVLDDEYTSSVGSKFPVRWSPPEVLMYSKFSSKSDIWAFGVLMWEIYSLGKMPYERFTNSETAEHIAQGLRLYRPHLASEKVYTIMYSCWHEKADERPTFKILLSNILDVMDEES

Take `Nc1ncnc2c1c(-c1ccc(Oc3ccccc3)cc1)nn2C1CCN(C2CCN(CCCN3CCN(c4ccc5c(c4)CN(C4CCC(=O)NC4=O)C5=O)CC3)CC2)CC1` (stereo not shown) [Compound 222, 3-(5-(4-(3-(4-(4-amino-3-(4-phenoxyphenyl)-1H-pyrazolo[3,4-d]pyrimidin-1-yl)-[1,4′-bipiperidin]-1′-yl)propyl)piperazin-1-yl)-1-oxoisoindolin-2-yl)piperidine-2,6-dione]: the IC50 in the experiment on JeKo-1 cells is 1 to 10 µM. Moreover, on BTK, the Dmax was greater than 90% and the DC50 is 0.01 to 0.05 µM. In addition, the IC50 in the experiment with Mino cells was 1 to 10 µM.
As to `Nc1ncnc2c1c(-c1ccc(Oc3ccccc3)cc1)nn2C1CCN(C2CCN(CCCN3CCC(c4ccc5c(c4)C(=O)N(C4CCC(=O)NC4=O)C5=O)CC3)CC2)CC1` (stereo not shown) [Compound 223, 5-(1-(3-(4-(4-amino-3-(4-phenoxyphenyl)-1H-pyrazolo[3,4-d]pyrimidin-1-yl)-[1,4′-bipiperidin]-1′-yl)propyl)piperidin-4-yl)-2-(2,6-dioxopiperidin-3-yl)isoindoline-1,3-dione], the IC50 with JeKo-1 cells is 1 to 10 µM. Further, on BTK, the maximal degradation (Dmax) is greater than 75% and the DC50 fell in the range of 0.01 to 0.05 µM. For the same compound, the IC50 in the experiment with Mino cells fell in the range of 1 to 10 µM.
Turning to `Nc1ncnc2c1c(-c1ccc(Oc3ccccc3)cc1)nn2C1CCN(C2CCN(CCCN3CCC(c4ccc5c(c4)CN(C4CCC(=O)NC4=O)C5=O)CC3)CC2)CC1` (stereo not shown) [Compound 224, 3-(5-(1-(3-(4-(4-amino-3-(4-phenoxyphenyl)-1H-pyrazolo[3,4-d]pyrimidin-1-yl)-[1,4′-bipiperidin]-1′-yl)propyl)piperidin-4-yl)-1-oxoisoindolin-2-yl)piperidine-2,6-dione], the IC50 with JeKo-1 cells fell in the range of 1 to 10 µM. For the same compound, at BTK, the maximal degradation (Dmax) is greater than 75% and the DC50 fell in the range of 0.01 to 0.05 µM. The IC50 in the experiment with Mino cells was 1 to 10 µM.
With `Nc1ncnc2c1c(-c1ccc(Oc3ccccc3)cc1)nn2C1CCN(C2CCN(CCCC3CCN(c4ccc5c(c4)C(=O)N(C4CCC(=O)NC4=O)C5=O)CC3)CC2)CC1` (stereo not shown) [Compound 225, 5-(4-(3-(4-(4-amino-3-(4-phenoxyphenyl)-1H-pyrazolo[3,4-d]pyrimidin-1-yl)-[1,4′-bipiperidin]-1′-yl)propyl)piperidin-1-yl)-2-(2,6-dioxopiperidin-3-yl)isoindoline-1,3-dione], the IC50 in the experiment with JeKo-1 cells and with Mino cells was greater than 10 µM each time. Further, at BTK, the greatest degradation seen (Dmax) was greater than 75%. At BTK, this compound came in with a DC50 greater than 0.05 µM.
In the case of `Nc1ncnc2c1c(-c1ccc(Oc3ccccc3)cc1)nn2C1CCN(C2CCN(CCCC3CCN(c4ccc5c(c4)CN(C4CCC(=O)NC4=O)C5=O)CC3)CC2)CC1` (stereo not shown) [Compound 226, 3-(5-(4-(3-(4-(4-amino-3-(4-phenoxyphenyl)-1H-pyrazolo[3,4-d]pyrimidin-1-yl)-[1,4′-bipiperidin]-1′-yl)propyl)piperidin-1-yl)-1-oxoisoindolin-2-yl)piperidine-2,6-dione], the IC50 in the experiment with JeKo-1 cells was greater than 10 µM. Moreover, on BTK, the Dmax was greater than 75% and the DC50 fell in the range of 0.01 to 0.05 µM. Further, in the experiment on Mino cells, the IC50 fell in the range of 1 to 10 µM.
Consider `Nc1ncnc2c1c(-c1ccc(Oc3ccccc3)cc1)nn2C1CCN(C2CCN(C(=O)N3CCC(c4ccc5c(c4)C(=O)N(C4CCC(=O)NC4=O)C5=O)CC3)CC2)CC1` (stereo not shown) [Compound 227, 5-(1-(4-(4-amino-3-(4-phenoxyphenyl)-1H-pyrazolo[3,4-d]pyrimidin-1-yl)-[1,4′-bipiperidine]-1′-carbonyl)piperidin-4-yl)-2-(2,6-dioxopiperidin-3-yl)isoindoline-1,3-dione], for which the IC50 in the experiment on JeKo-1 cells was greater than 10 µM. Moreover, at BTK, the Dmax is greater than 50% and the DC50 was greater than 0.05 µM. The IC50 with Mino cells was greater than 10 µM.
As for `Nc1ncnc2c1c(-c1ccc(Oc3ccccc3)cc1)nn2C1CCN(C2CCN(C(=O)N3CCC(c4ccc5c(c4)CN(C4CCC(=O)NC4=O)C5=O)CC3)CC2)CC1` (stereo not shown) [Compound 228, 3-(5-(1-(4-(4-amino-3-(4-phenoxyphenyl)-1H-pyrazolo[3,4-d]pyrimidin-1-yl)-[1,4′-bipiperidine]-1′-carbonyl)piperidin-4-yl)-1-oxoisoindolin-2-yl)piperidine-2,6-dione], the IC50 in the experiment with JeKo-1 cells was greater than 10 µM. At BTK, this compound displayed a Dmax greater than 50% and a 50% degradation concentration (DC50) greater than 0.05 µM. Further, the IC50 in the experiment on Mino cells was greater than 10 µM.
